What all share (format): in vivo
Test [1] concerns Plasmodium chabaudi. The experiment in a line: P. chabaudi infection (10^5 pRBC i.v.) in A/J mice, continuous daily cysteamine treatment, blood parasitemia. The protocol: A/J and C57BL/6 (B6) mice were purchased from the Jackson Laboratories (Bar Harbor, Me.) and were housed at McGill University according to the guidelines of the Canadian Council on Animal Care. An LDH virus-free isolate of P. chabaudi AS was maintained by weekly passage in A/J mice. […] Following infection, the percentage of pRBC was determined daily on thin blood smears stained with Dif-Quik™ (Dade Behring, Newark, Del.), as described (Fortin A, et al. (2001) Proc Natl Acad Sci USA 98: 10793-10798).
Cysteamine hydrochloride (Sigma, Burlington ON) was prepared in PBS. […]
To gain more insight into the anti-malarial effect of cysteamine (Cys) in vivo, the pharmacokinetic characteristics (plasma level) of Cys administered through the sub-cutaneous (s.c.) and intra-peritoneal (i.p) routes was compared. […] Parasitemia was monitored on thin blood smears at days 5, 6 and 7 following infection (FIG. 1B). […]
It was next determined whether Cys at equivalent dosing to that used in the clinical treatment of nephropathic cystinosis in humans has an effect on the course and severity of P. chabaudi infection in mice. […] The efficacy of different regimens of 50 mg/kg Cys s.c. (number of injections, interval between injections) on replication of P. chabaudi in vivo was evaluated. […]

The subject of test [2] is Plasmodium chabaudi. The experiment in a line: Progression of P. chabaudi infection (10^6 pRBC i.v.) in pantetheinase-sufficient B6 mice. Particulars: Cys 60 mg/kg added to Art. The procedure:
(§1) A/J and C57BL/6 (B6) mice were purchased from the Jackson Laboratories (Bar Harbor, Me.) and were housed at McGill University according to the guidelines of the Canadian Council on Animal Care. An LDH virus-free isolate of P. chabaudi AS was maintained by weekly passage in A/J mice. Mice were infected intravenously into the tail vein (i.v.) with 10^6 or 10^7 pRBC suspended in pyrogen-free saline. Following infection, the percentage of pRBC was determined daily on thin blood smears stained with Dif-Quik™ (Dade Behring, Newark, Del.), as described (Fortin A, et al. (2001) Proc Natl Acad Sci USA 98: 10793-10798).
(§2) Cysteamine hydrochloride (Sigma, Burlington ON) was prepared in PBS. Chloroquine hydrochloride, artesunate and dihydroartemisinin were provided by Dafra Pharmaceuticals; chloroquine was prepared in PBS, artesunate and DHA were prepared in 5% sodium bicarbonate and diluted in water to appropriate concentrations. All solutions were prepared fresh daily, filter sterilized and injections were performed intra-peritoneally (i.p) or subcutaneously (s.c.) for 4 days or according to treatment regimen. Mice were weighed prior to treatment to determine appropriate doses and injection volumes ranged from 100-400 μL per mouse. In the case of animals treated with two drugs, artemisinin derivatives were administered first (due to the short half life of cysteamine), followed by cysteamine 5-10 minutes later on alternate sides. Untreated control animals were injected with PBS alone.
To investigate whether the effects on parasite burden over the course of infection would also be observed with a pantetheinase-sufficient mouse strain, a similar experiment was performed using female B6 mice. Groups of mice were infected with 10^6 P. chabaudi pRBC i.v. and treated with PBS, 1 mg/kg or 30 mg/kg of Art, or 1 mg/kg or 30 mg/kg of Art plus 60 mg/kg of Cys for 4 days. […] As in A/J mice, the effect of Cys addition to 1 mg/kg of Art has a clear effect on early parasite replication at day 6 (FIG. 6B). […] B6 mice were able to completely clear parasite burdens and survive the infection, even in the control PBS-treated group.

In test [3] the test system is Plasmodium chabaudi. The experiment in a line: 4-day test, P. chabaudi (10^7 pRBC i.v.) in pantetheinase-sufficient C57BL/6 mice, blood parasitemia days 4 and 5. Particulars: cysteamine 170 mg/kg i.p. alone, days 0-3. The procedure: as §1, §2
Groups with normally distributed data points were compared using parametric unpaired t-tests, while groups with non-Gaussian distributions were compared using non-parametric Mann-Whitney tests. Survival differences were analyzed using the Log-Rank test. […] Standard error of percent inhibition was calculated from individual mice compared to the mean parasitemia level of the control group.
The effect of Cys on the potency and efficacy of the anti-malarial artemisinin derivatives was tested. […] Synergy (Tallarida R J (2001) J Pharmacol Exp Ther 298: 865-872) is defined as a total anti-malarial activity (reduction in blood parasitemia compared to untreated controls in a standard 4-day test) of the two compounds administered together being greater than the sum of the independent activities of the two compounds given alone. We tested combinations of Cys and either artesunate (ART) or dihydroartemisinin (DHA), the bioactive form of artemisinin. Pantetheinase-deficient mice were infected with P. chabaudi (10^7 pRBC, i.v.) and treated with Cys (170 mg/kg) and/or sub-optimal doses of ART (0.2 or 0.5 mg/kg) (FIG. 3A) or DHA (0.15 or 0.3 mg/kg) (FIG. 3B) from day 0-3 and parasitemia was monitored on days 4 and 5. […] Potentiation of the anti-malarial activity of ART (0.5 mg/kg) by Cys was also clearly evident in these C57BL/6 mice at both days 4 and 5 post-infection, with combined treatment causing a 65-71% reduction in parasitemia compared to PBS controls, greater than either compound tested alone (13-29%) (TABLE 1).

With `NCCS` [Cysteamine], the “reduction in parasitemia relative to saline injected controls” value in the test on Plasmodium chabaudi [1] (120 mg/kg Cys daily, either s.c. or i.p., day 5 and 6, p<0.01) was 50%. In the test with Plasmodium chabaudi [1] (Cys s.c. daily, all regimens: 1×150 mg/kg, 3×50 or 4×50 mg/kg at 2 hr, 3×50 mg/kg at 1 hr intervals (strongest), days 5, 6, 7), the “reduction of blood parasitemia” value was 40-67%. In addition, the “recrudescent parasitemia around day 14” value with Plasmodium chabaudi [2] was “eliminated the appearance of recrudescent parasitemia”. Also, in the test with Plasmodium chabaudi [3], the “Inhibition of parasitemia Day 4” value came out at 13 % PBS control and the “Inhibition of parasitemia Day 5” value is listed as 25 % PBS control.

Source of the values: patent US9278086B2, “Combination therapy and uses thereof for treatment and prevention of parasitic infection and disease” (The Royal Institution for the Advancement of …, priority 2010, dated 2016).
